Experimental data as given in patent US20160317420A1, “METHOD OF IMPROVING THE APPEARANCE OF SKIN AND COMPOSITIONS THEREFOR” (The Procter & Gamble Company, priority 2015, published 2016).

What was measured:
[1] = tested on: HMGB1 released from human neonatal keratinocytes exposed to CSE; assay: HMGB1 Assay (in vitro stress test, cigarette smoke extract); assay type: cell-based; details: 0.01% w/v + CSE; for AVG HMGB1 released: keratinocytes, 24 hours, ELISA; for effect on the amount of HMGB1 released by keratinocytes exposed to CSE, relative to CSE test medium: p<0.1 significant
Experimental: Human neonatal keratinocytes (available from Thermo) were placed in each well of four 12-well plates. Each well also contained 2 ml of EPILIFE brand keratinocyte medium. The plates were incubated at 37 ° C. in a CO2 incubator until cell confluency reached 70%. Once the cell confluency reached 70%, the keratinocyte medium in each well was replaced with the appropriate medium for the test (i.e., control medium, CSE test medium, niacinamide (“N”)+CSE test medium or nicotinamide riboside chloride (“NR”)+CSE test medium) to produce test samples. The resulting test samples were incubated for 24 hours at 37 ° C. in a CO2 incubator, after which the medium in each cell was removed and the HMGB 1 levels were determined using an ELISA kit from IBL according to the manufacturer's instructions.
The N and NR media were made by adding either niacinamide or nicotinamide riboside chloride (available from Chromadex, Irvine, Calif.) to EPILIFE brand keratinocyte medium to produce a 0.01% w/v solution. The cigarette smoke extract was made by suctioning a lit cigarette through a vacuum flask containing 60 mL of phosphate buffered saline (“PBS”). 4 CAMEL brand cigarettes with the filters cut off were used to create a batch of CSE. The CSE was diluted 1:20 using keratinocyte medium to create the CSE test medium. The N+CSE medium and NR+CSE medium were prepared by adding CSE test medium to final dilution of 1:6 (CSE:medium) and either N or NR to final dilution of 0.01% w/v. Unmodified keratinocyte medium was used as the control.

[2] = tested on: glycation reaction between the gelatin and glyceraldehyde; assay: AGE Assay (in vitro suppression of AGE formation and yellowness reduction); assay type: biochemical; details: for % reduction in glycation rate vs. pos. ctrl.: 24-hr; for Δb* at 24-hr vs. 0-hour: blank-corrected yellowness; for ΔFLR at 24-hr vs. 0-hr: fluorescence 400/465 nm, 24 hours at 37° C.
Experimental: The anti-glycation ability of NR was determined as follows. Samples were prepared in a 96-well plate (3 replicates each) at a total volume of 250 μl/well. The test samples contained 112.5 μl of 2% w/v gelatin solution (commercially available from Sigma as Catalog # G1393-100 ML), 10 μl of 1 M glyceraldehyde (commercially available from Sigma as Catalog # G5001-1 G), 102.5 p1 Dulbecco's phosphate buffered saline (“DPBS”) (commercially available from Gibco's), and varying doses (0.1%, 0.5%, 1% and 5% w/v) of nicotinamide riboside chloride (“NR”) (available from Chromadex, Irvine, CA). The positive control contained 112.5 μl gelatin, 10 μl of 1 M glyceraldehyde and 127.5 μl DPBS. The negative control contained 112.5 μl gelatin and 137.5 μl DPBS. A 5% w/v niacinamide (“N”) composition was used for a benchmark comparison. The niacinamide sample contained the same amounts of gelatin, glyceraldehyde and DPBS as the 5% NR sample. The plate containing the test samples was placed in a CO2 incubator (e.g., THERMO SCIENTIFIC FORMA brand CO2 incubator available from Fisher Scientific, Waltham, Mass. or equivalent) and incubated for 24 hours at 37° C.
After 24 hours, the plate containing the test samples was removed from the incubator and placed in a SPECTRAMAX Plus brand spectrophotometer (available from Molecular Devices, Sunnyvale, Calif.). The spectrophotometer was set to detect fluorescence intensity (“FLR”) at 400/465 nm (ex/em). Glycation rate was determined by measuring FLR, at 0-hour (i.e., at the start of the test), 2-hour, 5-hour and 24-hour time points. The change in fluorescence intensity (“ΔFLR”) was determined by comparing the FLR of a well at a sampling time point to the 0-hour time point. To determine yellowness (i.e., b* value), a SPECTRAMAX Plus brand spectrophotometer was used to collect wavelength/absorbance pairs from 350 nm to 750 nm in 10 nm increments following the same time course as the FLR measurements (i.e., 0-hour, 2-hour, 5-hour and 24-hour). The wavelength/absorbance pairs were then converted to L*a*b* values by a computer using conversion software. The change in yellowness (“Ab*”) at a particular time point was determined by subtracting the b* value at the 0-hour time point from the b* value measured at the time point of interest. To correct for yellowness that is not due to the glycation reaction between the gelatin and glyceraldehyde, a blank well was set up for each treatment leg. The blank well contains every ingredient in the corresponding treatment leg except for the gelatin. The b* value of the blank well is subtracted from the b* value measured for each well before calculating the final Ab* value.

Structure (SMILES)	AVG HMGB1 released [1]	effect on the amount of HMGB1 released by keratinocytes exposed to CSE, relative to CSE test medium [1]	% reduction in glycation rate vs. pos. ctrl. ([2]; 5% w/v)	Δb* at 24-hr vs. 0-hour ([2]; 5% w/v)	ΔFLR at 24-hr vs. 0-hr ([2]; 5% w/v)	% reduction in glycation rate vs. pos. ctrl. ([2]; 0.1% w/v)	Δb* at 24-hr vs. 0-hour ([2]; 0.1% w/v)	ΔFLR at 24-hr vs. 0-hr ([2]; 0.1% w/v)	% reduction in glycation rate vs. pos. ctrl. ([2]; 0.5% w/v)	Δb* at 24-hr vs. 0-hour ([2]; 0.5% w/v)	ΔFLR at 24-hr vs. 0-hr ([2]; 0.5% w/v)	% reduction in glycation rate vs. pos. ctrl. ([2]; 1% w/v)	Δb* at 24-hr vs. 0-hour ([2]; 1% w/v)	ΔFLR at 24-hr vs. 0-hr ([2]; 1% w/v)
NC(=O)c1cccnc1 [N, niacinamide, reference compound]	4.2790 ng/mL	no significant effect	33.2%	9.19	2341									
NC(=O)c1ccc[n+]([C@@H]2O[C@H](CO)[C@@H](O)[C@H]2O)c1 [NR, nicotinamide riboside chloride]	2.0741 ng/mL	significantly reduce	98.8%	−2.09	41	22.2%	9.44	2729	63%	−4.24	1294	85.5%	−11.00	507
